Like-named read-outs stand apart in the source and are kept apart here.
What was measured:
[1] = type: physicochemical
Method: JNJ 3026582 (RWJ 67657) was gamma irradiated on dry ice at a dose of 15 kgray. Then the sterile drug was aseptically mixed with ORTHOVISC® in the concentrations of 10 μg/mL and 100 μg/mL. Drug content uniformity was confirmed by reverse phase HPLC. There was approximately 100% drug stability.
JNJ 17089540 (RWJ 669307) was gamma irradiated on dry ice at a dose of 15 kgray. The sterile drug as aseptically mixed with ORTHOVISC® in the concentrations of 1 ug/uL and 10 ug/uL. Drug content uniformity was confirmed by reverse phase HPLC. There was approximately 100% drug stability.
Suprofen was gamma irradiated on dry ice at dose of 15 kgray. The sterile drug was aseptically mixed with ORTHOVISC® in the concentration of 1.3 ug/uL. Drug content uniformity at time of preparation and stability of 4 months at 4° C. was confirmed by reverse phase HPLC that there was around 100% drug stability.

[2] = test system: injured cartilage explants, GAG release; experiment: drop tower design model: GAG release; type: cell-based, bovine; conditions: injured cartilage explants, inflammatory conditions
Source text: The device comprises a vertical rail that guides a sliding weight from 0.1 kg to 3 kg directly onto a force transducer which is situated at the bottom of the device. A sphere-shaped 2 mm indenter resting on a specimen is located at the bottom of the vertical rail. The indenter is held by a stop screw. The specimen is rigidly attached to a tissue holder underneath the indenter, to avoid side movements, the specimen is rigidly attached to the tissue holder. In this manner, the force transducer transduces a force indirectly onto the specimen. Adjusting the weight of a mass and height from which the mass drops varies the magnitude of the intended impact. For example, a weight mass (e.g., […]) held by a weight holder can be released from a height of e.g., 36 cm and dropped onto the force transducer.
Samples for compound evaluation were tested using either of two different methods to induce inflammatory conditions. One method utilized media conditioned from peripheral blood mononuclear cells (PBMCs) stimulated with LPS (“+LPS”) or non-inflammatory media without LPS (“−LPS”). Another method utilized the absence or presence of a cocktail of cytokines.
In the first method, bovine or human PBMCs were freshly prepared using Ficoll gradient by Lampire Biological Laboratories, Inc. PBMCs in RPMI w/10% FCS at delivery were spun down at 1500 rpm for twenty minutes and the cell pellet was washed twice with 1×PBS to wash off the residual Ficoll. The cells were then resuspended at a density of 1×10^6/ml in RPMI supplemented with 10% FCS, 1× Antibiotics-Antimycotics. The suspension was divided into two aliquots. One aliquot was stimulated with 10 μg/ml of LPS and the other was not stimulated. Both aliquots were then incubated at 37° C., 5% CO2 for twenty-four to seventy-two hours. The conditioned media with or without LPS stimulation are collected, aliquoted, and stored in −80° C. for a maximum of three months. Each conditioned medium was assessed for levels of pro-inflammatory cytokines to ensure their secretion from PBMC. A representative cytokine, IL-6, was assayed by ELISA using a Human IL-6 Quantikine kit and it was shown that the LPS-stimulated medium had at least 10 ng/ml of IL-6, while IL-6 was undetectable in the unstimulated medium.
In the second method, the explants were cultured at 37° C., 5% CO2 either in stimulated or non-stimulated conditioned medium as described above or in defined medium containing DMEM supplemented with 1% FCS, 1× insulin-transferrin-sodium selenite media supplement and Antibiotics-Antimycotics in the presence or absence of a cocktail of cytokines containing 10 ng/ml of IL-1β, 100 ng/ml of TNFα and 5 ng/ml of IFN-γ. The compounds were solubilized in H2O, Ethanol or DMSO (10^−2 M) according to suppliers' instructions and further diluted with either conditioned medium stimulated with or without LPS to the required concentrations. DMSO concentrations in the culture media never exceeded 1%. This concentration of DMSO has no effect on cartilage proteoglycan metabolism in response to cytokines. The injured and noninjured cartilage explants were treated with compound-containing medium for three to five days. The specimens were first treated with compounds at desired concentrations at 37° C. for one hour and then incubated for three to five days in the absence or presence of the cocktail of cytokines. At the end of the incubation, media and cartilage samples were harvested and frozen for further analysis.
Glycosaminoglycan (GAG) levels in the culture media or cartilage were determined by measuring the amount of polyanionic material reacting with 1,9-dimethylmethylene blue (DME) as detected by absorbance at 525 nm, using shark chondroitin sulfate as a standard. The DME blue dye-binding solution was prepared by dissolving 16 mg of DME blue in a solution containing 0.304% glycine, 0.23% NaCl, 9.5 mM HCl, pH=3.0 with A525 equaling 0.31. […]

Row | Compound | drug stability ([1]; 4 months, 1.3 ug/uL) | drug stability [1] | GAG, inhibition of degradation/release [2] | GAG, inhibition of degradation/release ([2]; listed as JNK 7583979 (RWJ 351958))
1 | CC(C(=O)O)c1ccc(C(=O)c2cccs2)cc1 (stereo not shown) [Suprofen, reference compound] | around 100% | – | – | –
2 | CC(=O)N1CCN(c2c(-c3ccncc3)c(-c3ccc(F)cc3)c(C#N)n2C)CC1 [JNJ 17089540 (RWJ 669307)] | – | approximately 100% | – | –
3 | OCCC#Cc1nc(-c2ccc(F)cc2)c(-c2ccncc2)n1CCCc1ccccc1 [JNJ 3026582 (RWJ 67657), 4-[4-(4-fluorophenyl)-1-(3-phenylpropyl)-5-(4-pyridinyl)-1H-imidazol-2-yl]-3-butyn-1-ol] | – | approximately 100% | little efficacy | –
4 | CC(=O)Oc1cccc2c1C(=O)c1c(OC(C)=O)cc(C(=O)O)cc1C2=O [Diacerein, reference compound] | – | – | completely inhibited | –
5 | C[C@H](Nc1nccc(-c2c(-c3ccc(F)cc3)nc3nc(N)ccn23)n1)c1ccccc1 [JNJ 7583979 (RWJ 351958)] | – | – | little efficacy | little

From patent publication US8986696B2, “Trans-capsular administration of p38 map kinase inhibitors into orthopedic joints” (DePuy Mitek, Inc., priority 2007, dated 2015)
